Assay results published in patent publication US20130217760A1, “METHOD FOR ENHANCING THERAPEUTIC EFFECT OF ANTICANCER THERAPIES” (BOTAMEDI INC., priority 2012, published 2013).
Counter-ions that a name gives are not always drawn. Like-named read-outs stand apart in the source and are kept apart here.

Experiments:
[1] = tested on: adriamycin-induced cardiomyopathy
Experimental: The composition of the present invention was examined for suppression effects against adriamycin-induced cardiomyopathy.
A total of 25 male mice (33±5 g, four-week-old) were divided into four groups: three test groups of seven, and one control group of four. Adriamycin (tradename: Doxorubicin Hydrochloride; Sigma-Aldrich, Co, LLC; St. Louis, Mo., USA) in distilled water was intraperitoneally injected at a dose of 1.25 mg/kg once a week for six weeks in the adriamycin group. The other two experimental groups, low-dose and high-dose group, were orally administered with composition 4 at a dose of 32 mg/kg and 64 mg/kg, respectively, everyday for one week, and then intraperitoneally injected with adriamycin in distilled water at a dose of 1.25 mg/kg once a week for six weeks. The control group of 4 mice was injected once a week for six weeks with physiological saline. During the experiment, the mice were given access to food and water ad libitum.
The mice were generally anesthetized before and after the six-week experiment, and subjected to two-dimensional echocardiography using a 15-MHz transducer to measure left ventricular end-diastolic dimension (LVEDD) and left ventricular end-systolic dimension (LVESD), left ventricular end-diastolic posterior wall thickness (PW), and left ventricular end-systolic posterior wall thickness (PW). From these measurements, relative wall thickness (RWT), fraction shortening (FS), and left ventricular ejection fraction (LVEF) were calculated. The echocardiographic data are expressed as mean value±SD of five or higher independent measurements.

[2] = tested on: A2780 ovarian carcinoma cell line; assay: Inhibition of cancer cell proliferation, MTT assay, A2780; format: cell-based; conditions: A2780, 24 hrs incubation
Experimental: (§1) Ovarian […] carcinoma cell lines (SKOV3, A2780) were incubated in minimum essential medium [MEM] supplemented with 10% FBS, 100 units/ml antibiotic antimycotic, and 2.2 g/L sodium bicarbonate at 37° C. for 24 hrs in 96-well plates. The ovarian carcinoma cell lines were seeded at a density of 1×10^4 cells/well into 96-well plates and allowed to adhere to the bottom during incubation for 24 hrs. […] The cells in each well were treated with […] of an MTT reagent (1 mg/ml) for 4 hrs in a dark condition. After the medium was aspirated, the MTT fromazan thus formed was dissolved in […] of DMSO, and absorbance was measured at 540 nm using spectrophotometer.

[3] = Dietary intake (anorexia) in SKOV3 tumor-bearing mice; format: in vivo, Balb/c nu/nu mice; conditions: for Diet Intake: Cisplatin group (cisplatin 3 mg/kg i.p.)
[4] = tested on: Ovarian carcinoma cells (SKOV3); assay: Apoptosis by PI staining / FACS, co-treatment with Cisplatin; format: cell-based; conditions: Individual, 48 hrs
Experimental: Apoptotic effects were assessed using a PI staining method. Propidium iodide (PI) is a fluorescent molecule that can bind to DNA of dead cells to evaluate cell cycle and cell viability.
Ovarian carcinoma cells (SKOV3) were incubated at 37° C. for 24 hrs in minimum essential medium [MEM] supplemented with 10% FBS, 100 units/ml antibiotic antimycotic, and 2.2 g/L sodium bicarbonate in 96-well plates. The ovarian carcinoma cell line was seeded at a density of 1×10^4 cells/well into 96-well plates and allowed to adhere to the bottom during incubation for 24 hrs. […] Afterwards, the cells were washed with PBS, and detached with trypsin-EDTA, followed by centrifugation at 1,000 rpm for 10 min. The cells were fixed with 70% ethanol at 4° C. for 24 hrs. After removal of the ethanol, the cells were washed many times with PBS, suspended in PBS containing RNaseA, and reacted with a PI reagent for 10 min at room temperature in a dark condition.

[5] = tested on: ovarian carcinoma cell line SKOV3 tumors; assay: SKOV3 ovarian carcinoma xenograft, tumor volume and weight; format: in vivo, Balb/c nu/nu mice
Experimental: The ovarian carcinoma cell line SKOV3 was detached from a culture dish using trypsin-EDTA, and diluted to a density of […] cells/150 in an RPMI medium supplemented with 10% FBS, followed by subcutaneous injection into the right flank of Balb/c nu/nu mice using a syringe. […] The control group was treated with PBS. During the experimental period, the tumor size, body weight and dietary intake of mice in each group was recorded three times per week.
After 4 weeks, the animals were sacrificed and blood was taken from the animals. Tumors were e.xcised from the animals and measured for size and weight.

[6] = tested on: SKOV3 ovarian carcinoma cell line; assay: Inhibition of cancer cell proliferation, MTT assay, SKOV3; format: cell-based; conditions: SKOV3, 24 hrs incubation
Experimental: as §1

[7] = Adriamycin Group, Week 0 (Baseline)

COc1cccc2c1C(=O)c1c(O)c3c(c(O)c1C2=O)C[C@@](O)(C(=O)CO)C[C@@H]3O[C@H]1C[C@H](N)[C@H](O)[C@H](C)O1 [Adriamycin, Doxorubicin Hydrochloride]
LVEDD [1, 7]: 5.7 ± 0.2 mm
LVESD [1, 7]: 2.4 ± 0.3 mm
PW [1, 7]: 1.6 ± 0.2 mm
FS ([1]; Adriamycin Group, Week 6): 44.2 ± 3.2%
LVEF ([1]; Adriamycin Group, Week 6): 70.3 ± 0.3%
LVESD ([1]; Adriamycin Group, Week 6): 3.8 ± 0.3 mm
PW ([1]; Adriamycin Group, Week 6): 1.4 ± 0.3 mm
FS Δ(6 − 0) ([1]; Adriamycin Group, Δ(6 − 0)): 14.4 ± 1.5%
LVEDD Δ(6 − 0) ([1]; Adriamycin Group, Δ(6 − 0)): 1.1 ± 0.1 mm
LVEF Δ(6 − 0) ([1]; Adriamycin Group, Δ(6 − 0)): 15.2 ± 3.0%
LVESD Δ(6 − 0) ([1]; Adriamycin Group, Δ(6 − 0)): 1.4 ± 0.0 mm
PW Δ(6 − 0) ([1]; Adriamycin Group, Δ(6 − 0)): 0.2 ± 0.1 mm
cardiomyopathy after 6 weeks ([1]; echocardiography after 6 weeks of study): cardiomyopathy with significant decrease in left ventricular posterior wall thickness (PW) and in fractional shortening (FS)

N.N.[Cl][Pt][Cl] [Cisplatin, cis-Diammineplatinum (II) dichloride]
IC50 A2780 [2]: 6.01 µg/mL
Diet Intake ([3]; Week 0): 4.8 gram
Diet Intake ([3]; Week 1): 4.6 gram
Diet Intake ([3]; Week 2): 4.0 gram
Diet Intake ([3]; Week 3): 3.7 gram
Diet Intake ([3]; Week 4): 4.1 gram
dietary intake compared to control group ([3]; during the experimental periods): decrease in dietary intake
Apoptosis (%) ([4]; Cisplatin 3 μM): 3.0%
Apoptosis (%) ([4]; Cisplatin 5 μM): 3.5%
tumor size compared to control ([5]; 4 weeks administration): slightly reduced
Tumor Weight after 4 Weeks ([5]; Cisplatin alone (3 mg/kg i.p.)): 1.7 gram
Tumor Volume ([5]; Cisplatin alone (3 mg/kg i.p.), Week 1): 100 mm3
Tumor Volume ([5]; Cisplatin alone (3 mg/kg i.p.), Week 2): 134 mm3
Tumor Volume ([5]; Cisplatin alone (3 mg/kg i.p.), Week 3): 144 mm3
Tumor Volume ([5]; Cisplatin alone (3 mg/kg i.p.), Week 4): 162 mm3
IC50 SKOV3 [6]: 12.3 µg/mL
